Literature values in patent US20240090499A1, “PRESERVATIVE COMPOSITIONS” (Dermegen Inc., priority 2022, published 2024).
Read-outs that look alike come from different tables or passages of the source.

System: fungi (molds)
Conditions: ingredient on its own

Molecule | anti-fungal activity as known | anti-fungal activity as known (listed as Polylysine)
CCCCCCCC(=O)OCC(O)CO (stereo not drawn) [glyceryl caprylate] | weak preservatives against molds | 
polylysine | only weakly anti-fungal | weak preservative against fungal microorganisms such as molds
